Test results taken from PubChem BioAssay (NCI).
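Cultured in 96-well plates, cells were exposed to test compound for 48 hours across five concentrations. GI50 is the concentration that inhibits growth by half. TGI is the concentration that stops growth completely.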

Assays:
Assay in all cases: NCI-60 cell line screen, 48 h
A549 NSCLC = system: A549 NSCLC
ACHN renal = system: ACHN renal
KM12 colon = system: KM12 colon
NCI-H522 lung = system: NCI-H522 lung
SF-295 CNS = system: SF-295 CNS
SK-MEL-28 melanoma = system: SK-MEL-28 melanoma
SN12C renal = system: SN12C renal
SW-620 colon = system: SW-620 colon
TK-10 renal = system: TK-10 renal
MALME-3M melanoma = system: MALME-3M melanoma

| Compound | GI50 (A549 NSCLC) [µM] | TGI (A549 NSCLC) [µM] | GI50 (ACHN renal) [µM] | TGI (ACHN renal) [µM] | GI50 (KM12 colon) [µM] | TGI (KM12 colon) [µM] | GI50 (NCI-H522 lung) [µM] | TGI (NCI-H522 lung) [µM] | GI50 (SF-295 CNS) [µM] | TGI (SF-295 CNS) [µM] | GI50 (SK-MEL-28 melanoma) [µM] | TGI (SK-MEL-28 melanoma) [µM] | GI50 (SN12C renal) [µM] | TGI (SN12C renal) [µM] | GI50 (SW-620 colon) [µM] | TGI (SW-620 colon) [µM] | GI50 (TK-10 renal) [µM] | TGI (TK-10 renal) [µM] | GI50 (MALME-3M melanoma) [µM] | TGI (MALME-3M melanoma) [µM] |
| --- | --- | --- | --- | --- | --- | --- | --- | --- | --- | --- | --- | --- | --- | --- | --- | --- | --- | --- | --- | --- |
| COc1ccc(OC)c(-c2cc(-c3ccc(Cl)cc3)nn2-c2ccc(S(=O)(=O)NC(C)=O)cc2)c1 | 28.6 | > 100 | 3.23 | 11.1 | 20.3 | 46.2 | 32.4 | > 100 | 42.8 | > 100 | 21.3 | 57.9 | 3.02 | 10.9 | 5.39 | 22.2 | 19.3 | 38.2 | – | – |
| CCn1c(-c2cc3ccccc3cc2O)nn(C(=O)c2c(Cl)cccc2Cl)c1=S | > 50 | > 50 | 16.2 | > 50 | > 50 | > 50 | 21.6 | > 50 | 34.6 | > 50 | > 50 | > 50 | 23.7 | > 50 | 15.3 | > 50 | – | – | 30.8 | > 50 |
| CC(C)(C)C1CCC2c3c([nH]c4ccccc34)C3C(=O)N(c4ccccc4)C(=O)C3C2C1 (stereo unspecified) | – | 46 | – | 26.2 | – | > 100 | – | – | – | 16.4 | – | 18.8 | – | 17.4 | – | 41 | – | 12.5 | – | 7.31 |
| O=Cc1ccc(-c2ccc(-c3nc4ccccc4o3)cc2)o1 | 58.9 | > 100 | 21.1 | 58.2 | 21 | 53.4 | 24.4 | 59.3 | 28 | 85 | 64.5 | > 100 | – | – | 33 | > 100 | 32.5 | 74.8 | 24.6 | 65 |
| Cc1cc(C)c(Cn2cnc3c(Cl)ncnc32)c(C)c1CCl | 37.7 | > 100 | 0.233 | 14.1 | 31.1 | > 100 | > 100 | > 100 | > 100 | > 100 | – | – | > 100 | > 100 | 92.7 | > 100 | – | – | – | – |
| O=c1c(Cl)c(Cl)c(=O)c2sc3cc(Cl)ccc3[nH]c1=2 | – | > 100 | – | > 100 | – | > 100 | – | 35.2 | – | > 100 | – | > 100 | – | – | – | 52.1 | – | > 100 | – | > 100 |
| CC(=O)OC1CC2C(C)(C)C(=O)C=C[C@]2(C)C2CCC3(C)C(=CC(=O)C3c3ccoc3)[C@]12C (stereo partly specified) | – | 41 | – | 40.1 | – | 35.5 | – | – | – | 28.7 | – | 32.6 | – | 32.5 | – | 26 | – | 30 | – | 34.4 |
| CCN(CC)CCCC(C)N=C(C1=C(C(=NC(C)CCCN(CC)CC)c2cccc(OC)c2)C(=O)NC1=O)c1cccc(OC)c1 (stereo unspecified) | 0.966 | 2.08 | – | – | 1.81 | 6.36 | 0.989 | 2.03 | 1.47 | 5.94 | – | – | 2.38 | 14.3 | 0.71 | 2.38 | 1.26 | 3.44 | 1.11 | 2.07 |
| COc1cc(CNc2ccccc2C(=O)N2CCN(C(=O)c3cc(-c4cc(OC)c(OC)c(OC)c4)n4nc(-c5ccccc5)cc4n3)CC2)cc(OC)c1OC | 3.55 | > 100 | 4.24 | > 100 | 2.78 | > 100 | 2.22 | > 100 | – | – | 5.24 | > 100 | 17 | > 100 | 3.67 | > 100 | 6.85 | > 100 | – | – |
| Cc1cn2c(/C=N/N=C(N)N)c(-c3cccs3)nc2s1 | 10.6 | 31.1 | 2.12 | 5 | 2.39 | 8.3 | 16.9 | 47.9 | 3.28 | 14.4 | – | – | 0.161 | 3.08 | 1.71 | 4.02 | 12.9 | 26 | – | – |
| CCC(CNc1cc(OC)cc2cccnc12)NC1CCCCC1 (stereo unspecified) | 63.3 | > 100 | 49.7 | > 100 | 27.6 | > 100 | – | – | 17.3 | 45.8 | 25.6 | 64.7 | > 100 | > 100 | 19.4 | 56.7 | – | – | 17.2 | 34.8 |
| Cc1cc(N2CCSCC2)nc(NC2CCCC(Nc3ccnc4cc(Cl)ccc34)C2)n1 (stereo unspecified) | 2.88 | 8.91 | 2.06 | 4.46 | 1.94 | 4.25 | – | – | 1.7 | 3.27 | 1.9 | 3.7 | 1.9 | 4.37 | 1.83 | 3.77 | 2.05 | 4.58 | 1.8 | 3.43 |
| COc1ccc(OC)c2c1[nH]c(=O)c1c3ncccc3cn21 | 2.83 | 15.3 | 2.03 | > 100 | 4.23 | > 100 | 4.71 | > 100 | 2.92 | > 100 | – | – | 4.48 | > 100 | 1.55 | 5.38 | 4.07 | 13.6 | 5.51 | > 100 |
| CNC(=O)Cc1nc(-c2cccc(NS(=O)(=O)c3c(F)cccc3F)c2F)c(-c2ccnc(Nc3ccccc3)n2)s1 | 8.53 | > 50 | 0.889 | > 50 | 14.2 | > 50 | 7.22 | > 50 | 20.5 | > 50 | 0.0185 | > 50 | 1.71 | > 50 | 9.54 | > 50 | 3.02 | > 40.7 | – | – |
| FC(F)(F)C1(Br)C(c2ccccc2)=C1c1ccccc1 | – | 85.7 | – | 40.3 | – | 29.4 | – | – | – | 28.7 | – | 33.8 | – | 28.3 | – | 33.5 | – | 48.6 | – | 30.5 |
| COc1ccc2nc3cc([N+](=O)[O-])ccc3c(NCCCN(C)C)c2c1 | 0.278 | 10.1 | 0.418 | 3.09 | – | – | 0.0199 | 0.0597 | 0.35 | 2.39 | 0.504 | 2.87 | 0.111 | 0.768 | 0.067 | 1.39 | – | – | 0.287 | 0.878 |
| COC1=CC(=O)C2C(C1=O)C(c1ccccc1)[C@H]2C (stereo partly specified) | – | > 100 | – | 68.5 | – | > 100 | – | – | – | > 100 | – | > 100 | – | – | – | 36.6 | – | > 100 | – | 57 |
| COc1cc(CNC2c3cc4c(cc3C(c3cc(OC)c(OC)c(OC)c3)[C@H]3C(=O)OCC23)OCO4)cc(OC)c1OC (stereo partly specified) | – | > 100 | – | > 100 | – | 0.692 | – | 0.262 | – | 0.677 | – | – | – | > 100 | – | > 100 | – | > 100 | – | > 100 |
| CC(=O)[CH-]C(=O)c1ccccc1.CC(=O)[CH-]C(=O)c1ccccc1.CCOCC[O-].CCOCC[O-].[Ti+4] | 28.7 | 90.5 | 31.6 | > 100 | 27.1 | 77.3 | 17 | 36.5 | 17.5 | 33.9 | 10.8 | 27.6 | 20.6 | 73.4 | 28.3 | > 100 | – | – | 16.9 | 43.7 |
| CCN(CC)CCCNC(=O)c1c2c(n3ccccc13)C(=O)c1ncccc1C2=O | 1.17 | 2.84 | 0.395 | 3.16 | 0.44 | 6.33 | 0.515 | 2.32 | 1.07 | 6.29 | 2.49 | 8.64 | – | – | 0.367 | 1.67 | – | – | 0.0823 | 0.425 |
| Cc1ccc(S(=O)(=O)NNC(=O)c2cc(C)c(C)cc2N)cc1 | – | – | – | > 100 | – | > 100 | – | > 100 | – | > 100 | – | > 100 | – | > 100 | – | > 100 | – | – | – | > 100 |
| C=C(Nc1ccc([N+](=O)[O-])cc1[N+](=O)[O-])c1c/c(=N\NC(N)=S)c2ccccc2o1 | – | > 100 | – | > 100 | – | > 100 | – | > 100 | – | > 100 | – | > 100 | – | > 100 | – | > 100 | – | > 100 | – | – |
| CCOC(=O)C(C)(C)Oc1ccc(/C=C/C(=O)c2ccc(Cl)cc2)cc1 | – | > 100 | – | – | – | – | – | – | – | 41.2 | – | 34.7 | – | 36 | – | 28 | – | > 100 | – | 34.6 |
| Cc1cc(Cl)ccc1NC(=O)C(=O)C(C(=O)c1ccc2ccccc2c1)C1OC(=O)c2ccccc21 (stereo unspecified) | – | 94.5 | – | > 100 | – | 52.3 | – | 23.4 | – | – | – | 54.5 | – | 37.4 | – | 84.6 | – | – | – | 22.8 |
